Assay [1] concerns the target T1, human EP3 receptor (Homo sapiens, UniProt P43115).
T1 construct: expressed in transfected cells
T1 sequence (P43115 1-390): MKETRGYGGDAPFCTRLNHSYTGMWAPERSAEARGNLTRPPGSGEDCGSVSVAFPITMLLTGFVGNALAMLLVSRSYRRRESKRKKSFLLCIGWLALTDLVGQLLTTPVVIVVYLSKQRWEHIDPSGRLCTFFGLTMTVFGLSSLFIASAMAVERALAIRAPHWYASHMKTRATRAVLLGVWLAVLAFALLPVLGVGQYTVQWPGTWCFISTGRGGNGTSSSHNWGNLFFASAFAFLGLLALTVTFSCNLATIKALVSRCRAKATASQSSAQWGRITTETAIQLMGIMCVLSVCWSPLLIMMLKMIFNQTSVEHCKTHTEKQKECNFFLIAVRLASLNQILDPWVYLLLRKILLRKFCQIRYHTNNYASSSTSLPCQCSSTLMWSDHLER
Put plainly: Binding ability to human EP receptors ([3H]PGE2 displacement), EP3. Conditions: membranes expressing human EP3; [3H]PGE2 2.5 nM; Cheng-Prusoff; read-out: pKi (M) EP3 (converted). As for the experimental part:
(§1) Membranes were prepared from cells stably transfected with human EP receptor cDNA. In brief, cells were cultured to confluency, scraped from culture flasks, and centrifuged (800 g, 8 minutes, 4° C.). Cells were twice washed in ice cold homogenisation buffer containing 10 mMTris-HCl, 1 mM EDTA.2Na, 250 mM sucrose, 1 mM PMSF, 0.3 mM indomethacin, pH 7.4, homogenised and re-centrifuged as before. The supernatant was stored on ice and pellets re-homogenised and re-spun. Supernatants were pooled and centrifuged at 40000 g, 10 minutes, 4° C. Resultant membrane pellets were stored at −80° C. until use. For assay, membranes expressing human EP4, EP3, EP2 or EP1 receptors were incubated in Millipore (MHVBN45) plates containing assay buffer, radiolabelled [^3H]PGE2 and 0.1 to 10 000 nM concentrations of compounds. Incubations were performed at suitable temperatures and for suitable times to allow equilibrium to be reached. Non-specific binding was determined in the presence of 10 uM PGE2. Bound and free radiolabel was separated by vacuum manifold filtration using appropriate wash buffers, and bound radiolabel was determined by scintillation counting. Constituents of each of the buffers are included in table 1 below. […] Raven Press, New York, 2nd edition.

For assay [2], the target named is T2, human EP2 prostanoid receptors (Homo sapiens, UniProt P43116).
T2 construct: expressed in transfected cells; host or cells: HEK-293
T2 sequence (P43116 whole entry): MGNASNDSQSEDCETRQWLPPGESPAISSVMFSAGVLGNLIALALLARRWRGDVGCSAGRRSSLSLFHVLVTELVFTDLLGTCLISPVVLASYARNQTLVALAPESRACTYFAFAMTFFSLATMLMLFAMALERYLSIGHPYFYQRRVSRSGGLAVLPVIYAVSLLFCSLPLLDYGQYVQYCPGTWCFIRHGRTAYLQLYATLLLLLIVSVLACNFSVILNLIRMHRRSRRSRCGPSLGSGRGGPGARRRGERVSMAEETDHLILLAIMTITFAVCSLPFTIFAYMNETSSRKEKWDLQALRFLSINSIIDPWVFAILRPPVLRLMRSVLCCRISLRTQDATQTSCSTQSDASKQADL
Put plainly: Agonist activity at recombinant human EP2 prostanoid receptors (cAMP in HEK-293 clones). The note with it: for EC50: HEK-293 stably transfected with human EP2, cAMP accumulation, read-out: pEC50 EP2 (converted); for activity (EP2 part): functional classification at EP2. In kind it is cell-based. As for the experimental part: Culture media was Minimal essential media (MEM), supplemented with 10% foetal bovine serum, 100 U/ml penicillin, […] streptomycin, 2.5 μg/ml fungizone, 2mM glutamine. Cells were cultured to confluency (3-4 days) prior to use. Culture media was removed, and confluent cells washed three times in MEM. […] Cells were then stimulated by the addition of 25 μl of PGE2 or agonists prepared in assay buffer. In antagonist studies, cells were pre-incubated with compounds for 30 minutes prior to PGE2-mediated stimulation Plates were incubated for 15 min at 37° C., before termination of the reaction by the addition of 25 μl 1M HCl. The plate was then frozen at -20° C. overnight before determination of cAMP concentration. Stimulated cAMP levels were determined by radioligand displacement binding. In brief, plates were thawed rapidly in a waterbath, and the samples neutralised by the addition of 25 μl 1M NaOH. 30 μl was transferred to Millipore plates pre-coated with 0.5% Polyethylenimine (PEI). Samples were diluted by addition of 90 μl cAMP determination buffer (50 mM Tris, 5 mM EDTA, pH 7.0). […] 15 μl of 2 nM (final concentration) [^3H] cAMP, and 15 μl of 3'5'-cAMP protein kinase (8 μg/well final concentration) prepared in cAMP determination buffer containing 0.1% BSA, were added to each well. Plates were incubated on ice for 2 hours, before bound and free radiolabel were separated by vacuum filtration harvesting using the Millipore vacuum manifold, using ice cold water as the termination buffer. The sealing mat was removed from the Millipore plates, and the filters allowed to dry overnight. 50 μl Microscint 0 (Packard Bioscience) was added to each well, and the plate counted using the Micro-Beta Trilux topcount ^3H program. cAMP accumulation was determined from the standard curve, and values calculated in pmoles cAMP/well. Antagonists affinities (pA2 values) were determined assuming a slope of unity and the […]-Schild equation, where pA2=log [concentration ratio-1]-log[antagonist].

Assay [3] deals with T3, human EP4 receptor (Homo sapiens, UniProt P35408).
T3 construct: expressed in transfected cells
T3 sequence (P35408 whole entry): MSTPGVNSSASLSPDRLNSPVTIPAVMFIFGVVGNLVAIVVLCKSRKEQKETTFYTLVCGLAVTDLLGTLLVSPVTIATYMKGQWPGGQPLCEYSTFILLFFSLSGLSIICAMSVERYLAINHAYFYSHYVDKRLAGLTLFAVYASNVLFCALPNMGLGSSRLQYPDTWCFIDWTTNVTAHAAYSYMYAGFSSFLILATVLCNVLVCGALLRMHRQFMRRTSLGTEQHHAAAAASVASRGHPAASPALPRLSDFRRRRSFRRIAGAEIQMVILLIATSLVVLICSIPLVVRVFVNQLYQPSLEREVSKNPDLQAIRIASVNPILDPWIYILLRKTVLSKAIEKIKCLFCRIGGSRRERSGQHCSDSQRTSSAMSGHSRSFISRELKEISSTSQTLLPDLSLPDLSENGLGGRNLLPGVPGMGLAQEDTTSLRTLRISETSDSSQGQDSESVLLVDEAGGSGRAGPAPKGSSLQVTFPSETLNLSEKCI
Nature of the assay: Binding ability to human EP receptors ([3H]PGE2 displacement), EP4. Conditions: membranes expressing human EP4; [3H]PGE2 1 nM; Cheng-Prusoff; read-out: pKi (M) EP4 (converted). Here is the method: as §1

The target in assay [4] is T4, human EP2 receptor (Homo sapiens, UniProt P43116).
T4 construct: expressed in transfected cells
T4 sequence (P43116 whole entry): as the sequence (P43116 whole entry) above
Put plainly: Binding ability to human EP receptors ([3H]PGE2 displacement), EP2. Conditions: membranes expressing human EP2; [3H]PGE2 3 nM; Cheng-Prusoff; read-out: pKi (M) EP2 (converted). Here is the method:
as §1

Turning to `O=C(Nc1cccc(Cc2nnn[nH]2)c1)c1ccc(-c2ccc(Cl)cc2)o1` [Compound 87, 5-(4-Chloro-phenyl)-furan-2-carboxylic acid [3-(1H-tetrazol-5-ylmethyl)-phenyl]-amide], the Ki is more than 1e-05 M in assay [1], more than 1e-05 M in assay [3] and less than 1e-07 M in assay [4]. In assay [2], the EC50 is less than 100 nM. The “activity (EP2 part)” value in assay [2] is “EP2 Agonist”.
On to `O=C(O)COc1cccc(NC(=O)c2cccc(-c3ccc(F)cc3)n2)c1` [Compound 158, (3-{[6-(4-Fluoro-phenyl)-pyridine-2-carbonyl]-amino}-phenoxy)-acetic acid], for which the values for the Ki in assay [1], in assay [3] and in assay [4] were more than 1e-05 M, less than 1e-06 M and less than 1e-07 M, respectively. Moreover, the EC50 in assay [2] was less than 100 nM. In assay [2], the “activity (EP2 part)” value is “EP2 Agonist”.
The matching figures for `CC/C(=C\c1cccc(NC(=O)c2ccc(-c3ccccc3)o2)c1)C(=O)O` [Compound 98, 2-{3-[(5-Phenyl-furan-2-carbonyl)-amino]-benzylidene}-butyric acid]: more than 1e-05 M, more than 1e-05 M, less than 1e-06 M, less than 1000 nM and “EP2 Agonist”.
For the molecule `O=C(Nc1cccc(Cc2nnn[nH]2)c1)c1ccc(-c2ccc(F)cc2)o1` [Compound 85, 5-(4-Fluoro-phenyl)-furan-2-carboxylic acid [3-(1H-tetrazol-5-ylmethyl)-phenyl]-amide], the Ki in assay [1] was more than 1e-05 M; in assay [3], more than 1e-05 M; in assay [4], less than 1e-07 M. The EC50 in assay [2] is less than 100 nM. In assay [2], the “activity (EP2 part)” value was “EP2 Agonist”.
As for `O=C(O)Cc1cccc(NC(=O)c2ccc(-c3cccc(Cl)c3Cl)o2)c1` [Compound 37, (3-{[5-(2,3-Dichloro-phenyl)-furan-2-carbonyl]-amino}-phenyl)-acetic acid], the Ki in assay [1] was more than 1e-05 M; in assay [3] it was more than 1e-05 M; in assay [4] it was less than 1e-06 M. The EC50 in assay [2] was less than 1000 nM. Besides, the “activity (EP2 part)” value in assay [2] was “EP2 agonist”.
Consider `O=C(O)Cc1cccc(NC(=O)c2cccc(-c3ccccc3)n2)c1` [Compound 45, {3-[(6-Phenyl-pyridine-2-carbonyl)-amino]-phenyl}-acetic acid], for which the Ki in assay [1] is more than 1e-05 M; in assay [3] it was more than 1e-05 M; in assay [4], less than 1e-06 M. For the same molecule, the EC50 in assay [2] was less than 100 nM. In addition, the “activity (EP2 part)” value in assay [2] was “EP2 agonist”.
As for `COc1cccc(-c2ccc(C(=O)Nc3cccc(CC(=O)O)c3)o2)c1` [Compound 18, (3-{[5-(3-Methoxy-phenyl)-furan-2-carbonyl]-amino}-phenyl)-acetic acid], the Ki in assay [1] was more than 1e-05 M; in assay [3], more than 1e-05 M; in assay [4] it was less than 1e-06 M. The EC50 in assay [2] is less than 1000 nM. Moreover, in assay [2], the “activity (EP2 part)” value is “EP2 agonist”.
For the molecule `O=C(Nc1ccc2[nH]c(C(=O)O)cc2c1)c1cccc(-c2cc(Cl)cc(Cl)c2)n1` [Compound 135, 5-{[6-(3,5-Dichloro-phenyl)-pyridine-2-carbonyl]-amino}-1H-indole-2-carboxylic acid], the Ki in assay [1] is more than 1e-05 M; in assay [3], more than 1e-05 M; in assay [4], less than 1e-06 M. Also, the EC50 in assay [2] was less than 1000 nM. The “activity (EP2 part)” value in assay [2] was “EP2 Agonist”.
With `O=C(Nc1cccc(Cc2nnn[nH]2)c1)c1cccc(-c2cccc(F)c2)n1` [Compound 94, 6-(3-Fluoro-phenyl)-pyridine-2-carboxylic acid [3-(1H-tetrazol-5ylmethyl)-phenyl]-amide], the figures for the Ki in assay [1], in assay [3] and in assay [4] were more than 1e-05 M, more than 1e-05 M and less than 1e-07 M, respectively. Further, the EC50 in assay [2] was less than 100 nM. In addition, in assay [2], the “activity (EP2 part)” value is “EP2 Agonist”.
Take `O=C(O)Cc1cccc(NC(=O)c2cc(-c3cccc(F)c3)ccc2F)c1` [Compound 111]: the Ki in assay [1] is more than 1e-05 M; in assay [3], more than 1e-05 M; in assay [4], less than 1e-07 M. For the same molecule, the EC50 in assay [2] was less than 100 nM. The “activity (EP2 part)” value in assay [2] is listed as “EP2 Agonist”.
As to `O=C(O)Cc1cccc(NC(=O)c2cc(F)cc(-c3ccccc3)c2)c1` [Compound 52, {3-[(5-fluoro-biphenyl-3-carbonyl)-amino]-phenyl}-acetic acid], the figures for the Ki in assay [1], in assay [3] and in assay [4] were more than 1e-05 M, more than 1e-05 M and less than 1e-06 M, respectively. In addition, in assay [2], the EC50 was less than 100 nM. The “activity (EP2 part)” value in assay [2] is “EP2 agonist”.
Turning to `O=C(O)/C=C/c1cccc(NC(=O)c2ccc(-c3ccc(F)cc3)o2)c1` [Compound 71, 3-(3-{[5-(4-Fluoro-phenyl)-furan-2-carbonyl]-amino}-phenyl)-acrylic acid], the Ki in assay [1] was more than 1e-05 M; in assay [3], more than 1e-05 M; in assay [4], less than 1e-07 M. The “activity (EP2 part)” value in assay [2] is listed as “EP2 agonist”.
On to `COc1ccccc1-c1ccc(C(=O)Nc2cccc(CC(=O)O)c2)o1` [Compound 17, (3-{[5-(2-Methoxy-phenyl)-furan-2-carbonyl]-amino}-phenyl)-acetic acid], for which the Ki in assay [1] is more than 1e-05 M; in assay [3], more than 1e-05 M; in assay [4], less than 1e-06 M. Besides, the EC50 in assay [2] is less than 1000 nM. In assay [2], the “activity (EP2 part)” value is “EP2 agonist”.
For the molecule `O=C(O)Cc1cccc(NC(=O)c2ccc(-c3cccc(F)c3)o2)c1` [Compound 128, (3-{[5-(3-fluoro-phenyl)-furan-2-carbonyl]-amino}-phenyl)-acetic acid], the Ki in assay [1] was more than 1e-05 M; in assay [3], more than 1e-05 M; in assay [4] it was less than 1e-06 M. The EC50 in assay [2] was less than 100 nM. Further, the “activity (EP2 part)” value in assay [2] is reported as “EP2 Agonist”.
As for `O=C(O)/C=C/c1cccc(NC(=O)c2cccc(-c3cccc(F)c3)n2)c1` [Compound 110, 3-(3-{[6-(3-Fluoro-phenyl)-pyridine-2-carbonyl]-amino}-phenyl)-acrylic acid], the Ki was more than 1e-05 M in assay [1], more than 1e-05 M in assay [3] and less than 1e-07 M in assay [4]. Besides, the EC50 in assay [2] is less than 100 nM. Further, the “activity (EP2 part)” value in assay [2] is reported as “EP2 Agonist”.
Turning to `O=C(O)COc1cccc(NC(=O)c2cc(-c3cc(Cl)cc(Cl)c3)ccc2F)c1` [Compound 143, {3-[(3′,5′-Dichloro-4-fluoro-biphenyl-3-carbonyl)-amino]-phenoxy}-acetic acid], the Ki in assay [1] is more than 1e-05 M; in assay [3], more than 1e-05 M; in assay [4], less than 1e-07 M. Moreover, in assay [2], the EC50 was less than 100 nM. Also, the “activity (EP2 part)” value in assay [2] is given as “EP2 Agonist”.
In the case of `O=C(O)CCc1cccc(NC(=O)c2cccc(-c3ccc(F)cc3)n2)c1` [Compound 159, 3-(3-{[6-(4-Fluoro-phenyl)-pyridine-2-carbonyl]amino}-phenyl)-propionic acid], the Ki in assay [1] is more than 1e-05 M; in assay [3], more than 1e-05 M; in assay [4], less than 1e-07 M. Also, the EC50 in assay [2] is less than 100 nM. In assay [2], the “activity (EP2 part)” value is given as “EP2 Agonist”.

Source of the values: patent publication US7326732B2, “EP2 receptor agonists” (Pharmagene Laboratories Limited, priority 2004, dated 2008).
